Reference: patent publication US20040224981A1, “Antibacterial methods and compositions” (priority 2003, published 2004)
Where two headings read alike, the source gives them in different places.

Key:
S. aureus = assay: MIC against S. aureus strains and clinical isolates (broth microdilution); format: cell-based, Staphylococcus aureus; conditions: for MIC / MIC50 / MIC90: Staphylococcus aureus; for MIC50: read-out: MIC50; for MIC90: read-out: MIC90
How it was run: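 Broth microdilution per NCCLS in cation-supplemented Mueller-Hinton broth, final inoculum 5×10^5 CFU/ml from 0.5 McFarland suspensions diluted 1:10. Trays incubated aerobically overnight with quality control strains each run. Checkerboard FIC index: ≦0.5 synergy, >0.5 to 4 additive/indifferent, >4.0 antagonism.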

S. epidermidis = assay: MIC against S. epidermidis; format: cell-based; conditions: Staphylococcus epidermidis, Table 4, read-out: MIC
Procedure: (§1) The MRS inhibitor 4 alone and in combination with mupirocin (mupirocin salt and 1:1 combination) were tested against a collection of Gram-positive pathogens.
The MRS inhibitor 8 was also prepared as a fusidate and mupirocinate salt and tested for antibacterial activity against Gram-positive bacteria (Table 3). […] MRSi compound 8 alone and the fusidate and mupirocin salts were active against mupirocin-resistant S. aureus and S. epidermidis and organisms such as E. faecalis that are not susceptible to mupirocin.
The MRS inhibitor 5 acetate and mupirocin salts were tested against a collection of Gram-positive bacteria.

S. pyogenes = assay: MIC against S. pyogenes; format: cell-based, Streptococcus pyogenes; conditions: for MIC: Streptococcus pyogenes, Table 4, read-out: MIC
Procedure: as §1
S. pyogenes is also a significant skin pathogen and 48 recent clinical isolates were tested for their susceptibility to MRSi compound 5 alone (acetate) and in combination (1:1) with mupirocin (mupirocinate).

E. faecalis = assay: MIC against E. faecalis; format: cell-based; conditions: for Range (MIC): in µg/mL; for MIC: Enterococcus faecalis, read-out: MIC
E. faecium = assay: MIC against E. faecium; format: cell-based
Procedure: MRSi compound 5 alone and in combination with mupirocin was tested recent clinical isolates of E. faecalis (n=28) and E. faecium (n=23). Both the acetate salt and mupirocinate salts of MRSi compound 5 maintained potent activity against vancomycin-susceptible and—resistant enterococci (Tables 8, 9, and 10).

[1] = test system: MRS-resistant mutants of S. aureus; assay: Susceptibility (MIC) of MRS-resistant mutants of S. aureus; format: cell-based; conditions: Staphylococcus aureus
Procedure: MRS-resistant mutants generated in vitro in either serial passage or spontaneous resistance development studies were evaluated for susceptibility to mupirocin alone and in a 1:1 combination with MRSi compound 5.

[2] = all S. aureus isolates of Table 6
[3] = oxacillin-resistant S. aureus, Oxa-R (42)
[4] = oxacillin-susceptible S. aureus, Oxa-S (20)
[5] = recent clinical isolates of S. aureus, All (62)
[6] = 48 recent clinical isolates of S. pyogenes
[7] = recent clinical isolates of E. faecalis, ALL (28)
[8] = recent clinical isolates of E. faecium, ALL (23)

SMILES: C=C(F)c1sc(CNCCCNc2cc(=O)c3ccccc3[nH]2)c(C)c1Br [MRSi Cmpd 5 acetate, N-(4-bromo-5-(1-fluorovinyl)-3-methylthiophen-2-ylmethyl)-N′-(1H-quinolin-4-one)propane-1,3-diamine]
- MIC (S. aureus; ATCC29213, Table 4, S. aureus ATCC 29213, read-out: MIC): 0.06 µg/mL
- MIC (S. aureus; ATCC43300, Table 4, S. aureus ATCC 43300 (ORSA), read-out: MIC): 0.25 µg/mL
- MIC (S. aureus; NRS 1 / VISA, VISA, S. aureus NRS1 (Mu50), read-out: MIC): 0.015 µg/mL
- MIC (S. aureus; NRS 3 / VISA, VISA, S. aureus NRS3 (HIP5827), read-out: MIC): 0.008 µg/mL
- MIC (S. aureus; NRS 4 / VISA, VISA, S. aureus NRS4 (HIP5836), read-out: MIC): 0.008 µg/mL
- MIC (S. aureus; NRS 18 / VISA, VISA, S. aureus NRS18 (HIP06854), read-out: MIC): 0.03 µg/mL
- MIC (S. aureus; NRS 24 / VISA, VISA, S. aureus NRS24 (HIP09143), read-out: MIC): 0.06 µg/mL
- MIC (S. aureus; NRS 49 / VISA, VISA, S. aureus NRS49 (Korea), read-out: MIC): 0.008 µg/mL
- MIC (S. aureus; NRS54, Table 6, high-level mupirocin-resistant S. aureus NRS54, read-out: MIC): 0.06 µg/mL
- MIC (S. aureus; NRS 54 / VISA, VISA, S. aureus NRS54 (Brazil), read-out: MIC): 0.06 µg/mL
- MIC (S. aureus; NRS 56 / VISA, VISA, S. aureus NRS56 (Brazil), read-out: MIC): 0.008 µg/mL
- MIC (S. aureus; NRS107, Table 4, S. aureus NRS107 (mupA), read-out: MIC): ≤ 0.008 µg/mL
- MIC (S. aureus; NRS107, Table 6, high-level mupirocin-resistant S. aureus NRS107, read-out: MIC): ≤ 0.008 µg/mL
- MIC (S. aureus; NRS127, Table 6, low-level mupirocin-resistant S. aureus NRS127, read-out: MIC): 0.5 µg/mL
- MIC (S. aureus; Table 6, S. aureus (mupirocin-susceptible) 010-100, read-out: MIC): 0.03 µg/mL
- MIC (S. aureus; Table 6, S. aureus (mupirocin-susceptible) 087-2789, read-out: MIC): 0.06 µg/mL
- MIC (S. aureus; Table 6, S. aureus (mupirocin-susceptible) LZ9, read-out: MIC): 0.03 µg/mL
- MIC (S. aureus; Table 6, S. aureus (mupirocin-susceptible) LZ10, read-out: MIC): 0.03 µg/mL
- MIC (S. aureus; Table 6, high-level mupirocin-resistant S. aureus 010-420, read-out: MIC): 0.03 µg/mL
- MIC (S. aureus; Table 6, high-level mupirocin-resistant S. aureus 25-670, read-out: MIC): 0.03 µg/mL
- MIC (S. aureus; Table 6, high-level mupirocin-resistant S. aureus 87-2797, read-out: MIC): 0.03 µg/mL
- MIC (S. aureus; Table 6, high-level mupirocin-resistant S. aureus 1079101, read-out: MIC): 0.06 µg/mL
- MIC (S. aureus; Table 6, high-level mupirocin-resistant S. aureus LZ1, read-out: MIC): 0.015 µg/mL
- MIC (S. aureus; Table 6, high-level mupirocin-resistant S. aureus LZ6, read-out: MIC): 0.06 µg/mL
- MIC (S. aureus; Table 6, low-level mupirocin-resistant S. aureus 014-354, read-out: MIC): 0.015 µg/mL
- MIC (S. aureus; Table 6, low-level mupirocin-resistant S. aureus 031-1334, read-out: MIC): 0.015 µg/mL
- MIC (S. aureus; Table 6, low-level mupirocin-resistant S. aureus 036-1298, read-out: MIC): ≤ 0.008 µg/mL
- MIC (S. aureus; Table 6, low-level mupirocin-resistant S. aureus 1081148, read-out: MIC): 0.5 µg/mL
- MIC (S. aureus; Table 6, low-level mupirocin-resistant S. aureus LZ8, read-out: MIC): 0.03 µg/mL
- MIC (S. aureus; Table 6, low-level mupirocin-resistant S. aureus Miles Hall, read-out: MIC): ≤ 0.008 µg/mL
- MIC (S. aureus; VISA, all 8 vancomycin-intermediate S. aureus (VISA) isolates, read-out: MICs ranging): 0.008 to 0.25 µg/mL
- MIC50 (S. aureus; [2]): 0.03 µg/mL
- MIC90 (S. aureus; [2]): 0.5 µg/mL
- MIC50 (S. aureus; [3]): 0.03 µg/mL
- MIC90 (S. aureus; [3]): 0.5 µg/mL
- MIC (S. aureus; oxacillin-resistant S. aureus, Oxa-R (42), read-out: MIC Mode): 0.03 µg/mL
- MIC50 (S. aureus; [4]): 0.03 µg/mL
- MIC90 (S. aureus; [4]): 0.06 µg/mL
- MIC (S. aureus; oxacillin-susceptible S. aureus, Oxa-S (20), read-out: MIC Mode): 0.06 µg/mL
- MIC50 (S. aureus; [5]): 0.03 µg/mL
- MIC90 (S. aureus; [5]): 0.12 µg/mL
- MIC (S. aureus; recent clinical isolates of S. aureus, All (62), read-out: MIC Mode): 0.06 µg/mL
- MIC Range (S. aureus; [2]): ≦0.008-0.5 μg/mL
- MIC Range (S. aureus; [3]): ≦0.008 to 1 μg/mL
- MIC Range (S. aureus; [4]): ≦0.008 to 0.12 μg/mL
- MIC Range (S. aureus; [5]): ≦0.008 to 1 μg/mL
- MIC (S. epidermidis; S. epidermidis NRS6): 0.25 µg/mL
- MIC (S. epidermidis; S. epidermidis NRS7): 0.06 µg/mL
- MIC (S. epidermidis; S. epidermidis NRS8): 0.12 µg/mL
- MIC50 (S. pyogenes; [6]): 0.06 µg/mL
- MIC90 (S. pyogenes; [6]): 0.12 µg/mL
- Mode (MIC) (S. pyogenes; [6]): 0.06 µg/mL
- MIC Range (S. pyogenes; 48 recent clinical isolates of S. pyogenes, in µg/mL): 0.03 to 0.25
- MIC (S. pyogenes; ATCC19615, S. pyogenes ATCC 19615): 0.12 µg/mL
- MIC (S. pyogenes; S. pyogenes MB000143): 0.12 µg/mL
- MIC50 (E. faecalis; E. faecalis, Van-R(11)): < 0.004 µg/mL
- MIC90 (E. faecalis; E. faecalis, Van-R(11)): 0.015 µg/mL
- Mode (MIC) (E. faecalis; E. faecalis, Van-R(11)): < 0.004 µg/mL
- Range (MIC) (E. faecalis; E. faecalis, Van-R(11)): <0.004-0.015
- MIC50 (E. faecalis; E. faecalis, Van-S (16)): ≦0.004
- MIC90 (E. faecalis; E. faecalis, Van-S (16)): 0.008 µg/mL
- Mode (MIC) (E. faecalis; E. faecalis, Van-S (16)): ≦0.004
- Range (MIC) (E. faecalis; E. faecalis, Van-S (16)): <0.004-0.015
- MIC (E. faecalis; ATCC29212, Table 4, E. faecalis ATCC 29212): 0.015 µg/mL
- MIC (E. faecalis; Table 4, E. faecalis 1): 0.004 µg/mL
- MIC (E. faecalis; Table 4, E. faecalis 7): 0.015 µg/mL
- MIC50 (E. faecalis; [7]): < 0.004 µg/mL
- MIC90 (E. faecalis; [7]): 0.015 µg/mL
- Mode (MIC) (E. faecalis; [7]): < 0.004 µg/mL
- Range (MIC) (E. faecalis; [7]): <0.004-0.015
- MIC50 (E. faecium; E. faecium, Van-R(12)): < 0.004 µg/mL
- MIC90 (E. faecium; E. faecium, Van-R(12)): < 0.004 µg/mL
- Mode (MIC) (E. faecium; E. faecium, Van-R(12)): < 0.004 µg/mL
- Range (MIC) (E. faecium; E. faecium, Van-R(12), in µg/mL): <0.004-0.03
- MIC50 (E. faecium; E. faecium, Van-S (11)): ≦0.004
- MIC90 (E. faecium; E. faecium, Van-S (11)): ≦0.004
- Mode (MIC) (E. faecium; E. faecium, Van-S (11)): ≦0.004
- Range (MIC) (E. faecium; E. faecium, Van-S (11)): ≦0.004
- MIC50 (E. faecium; [8]): < 0.004 µg/mL
- MIC90 (E. faecium; [8]): < 0.004 µg/mL
- Mode (MIC) (E. faecium; [8]): < 0.004 µg/mL
- Range (MIC) (E. faecium; recent clinical isolates of E. faecium, ALL (23), in µg/mL): <0.004-0.03
- MIC ([1]; ATCC29213, S. aureus ATCC 29213, metS wild-type): 0.06 µg/mL
- MIC ([1]; ATCC43300, S. aureus ATCC 43300, metS wild-type): 0.06 µg/mL
- MIC ([1]; S. aureus SP-1A2, metS A247E): 4 µg/mL
- MIC ([1]; S. aureus SP-1B5, metS I57N): 8 µg/mL
- MIC ([1]; S. aureus SP-2B5, metS I57N, R100S): 16 µg/mL
- MIC ([1]; S. aureus SP-2C4, metS L213W): 4 µg/mL
- MIC ([1]; S. aureus SP-2D4, metS I57N): 16 µg/mL
- MIC ([1]; S. aureus SP-9B5, metS I57N, V296F): 4 µg/mL
- MIC ([1]; S. aureus SP-21A, metS A77V): 4 µg/mL
- MIC ([1]; S. aureus SR1, metS I57N): 4 µg/mL
